Organism: Rattus norvegicus
Assay: DrugMatrix - Regimen: Daily Repeat
Assay type: toxicity, organism-based, Sprague-Dawley
Set-up: regimen Daily Repeat, gender Male, age 6-8 weeks
Details: in vivo, po, route oral GAVAGE, vehicle 100 % WATER; for ABSOLUTE BASOPHIL / ABSOLUTE EOSINOPHIL / ABSOLUTE LYMPHOCYTE / ABSOLUTE MONOCYTE / ABSOLUTE SEGMENTED NEUTROPHIL / BASOPHIL / EOSINOPHIL / ERYTHROCYTE COUNT / HEMATOCRIT / HEMOGLOBIN / LEUKOCYTE COUNT / LYMPHOCYTE / MEAN CORPUSCULAR HEMOGLOBIN / MEAN CORPUSCULAR HEMOGLOBIN CONCENTRATION / MEAN CORPUSCULAR VOLUME / MONOCYTE / NEUTROPHIL / NUCLEATED RED BLOOD CELLS / PLATELET COUNT: tissue Blood; for ALANINE AMINOTRANSFERASE / ALBUMIN / ALKALINE PHOSPHATASE / ASPARTATE AMINOTRANSFERASE / BLOOD UREA NITROGEN / CARBON DIOXIDE / CHLORIDE / CHOLESTEROL / CREATINE PHOSPHOKINASE / CREATININE / GLUCOSE / LACTATE DEHYDROGENASE / LIPASE / PHOSPHORUS / POTASSIUM / SODIUM / TOTAL BILIRUBIN / TOTAL PROTEIN / URIC ACID: tissue Plasma
[1] = 58 mg/kg, 120 h, dose level Low, time 5 day
[2] = 220 mg/kg, 72 h, dose level High, time 3 day
[3] = 220 mg/kg, 120 h, dose level High, time 5 day

## NC12CC3CC(CC(C3)C1)C2 [AMANTADINE]
[1]
  ABSOLUTE BASOPHIL: 0 CELLS/uL
  ABSOLUTE EOSINOPHIL: 0 CELLS/uL
  ABSOLUTE LYMPHOCYTE: 10747.67 CELLS/uL
  ABSOLUTE MONOCYTE: 83.67 CELLS/uL
  ABSOLUTE SEGMENTED NEUTROPHIL: 1002 CELLS/uL
  BASOPHIL: 0%
  EOSINOPHIL: 0%
  ERYTHROCYTE COUNT: 6.06 x10E6/uL
  HEMATOCRIT: 37.8%
  HEMOGLOBIN: 14.9 G/DL
  LEUKOCYTE COUNT: 11.83 x10E3/uL
  LYMPHOCYTE: 89%
  MEAN CORPUSCULAR HEMOGLOBIN: 24.63 pg
  MEAN CORPUSCULAR HEMOGLOBIN CONCENTRATION: 39.43 G/DL
  MEAN CORPUSCULAR VOLUME: 62.5 fL
  MONOCYTE: 1%
  NEUTROPHIL: 10%
  NUCLEATED RED BLOOD CELLS: 0 /100WBC
  PLATELET COUNT: 1200.33 x10E3/uL
  ALANINE AMINOTRANSFERASE: 44 u/L
  ALBUMIN: 4.27 G/DL
  ALKALINE PHOSPHATASE: 432.67 u/L
  ASPARTATE AMINOTRANSFERASE: 73.33 u/L
  BLOOD UREA NITROGEN: 16 mg/dL
  CARBON DIOXIDE: 31 mmol/L
  CHLORIDE: 100.33 MEQ/L
  CHOLESTEROL: 73.33 mg/dL
  CREATINE PHOSPHOKINASE: 431.33 u/L
  CREATININE: 0.18 mg/dL
  GLUCOSE: 147 mg/dL
  LACTATE DEHYDROGENASE: 336 u/L
  LIPASE: 11.33 u/L
  PHOSPHORUS: 12.13 mg/dL
  POTASSIUM: 6.25 MEQ/L
  SODIUM: 142.77 MEQ/L
  TOTAL BILIRUBIN: 0.23 mg/dL
  TOTAL PROTEIN: 6.27 G/DL
  URIC ACID: 1.43 mg/dL
[2]
  ABSOLUTE BASOPHIL: 0 CELLS/uL
  ABSOLUTE EOSINOPHIL: 0 CELLS/uL
  ABSOLUTE LYMPHOCYTE: 17634 CELLS/uL
  ABSOLUTE MONOCYTE: 192.33 CELLS/uL
  ABSOLUTE SEGMENTED NEUTROPHIL: 940.33 CELLS/uL
  BASOPHIL: 0%
  EOSINOPHIL: 0%
  ERYTHROCYTE COUNT: 5.62 x10E6/uL
  HEMATOCRIT: 36.3%
  HEMOGLOBIN: 14.43 G/DL
  LEUKOCYTE COUNT: 18.77 x10E3/uL
  LYMPHOCYTE: 94%
  MEAN CORPUSCULAR HEMOGLOBIN: 25.7 pg
  MEAN CORPUSCULAR HEMOGLOBIN CONCENTRATION: 39.77 G/DL
  MEAN CORPUSCULAR VOLUME: 64.63 fL
  MONOCYTE: 1%
  NEUTROPHIL: 5%
  NUCLEATED RED BLOOD CELLS: 0 /100WBC
  PLATELET COUNT: 1304.33 x10E3/uL
  ALANINE AMINOTRANSFERASE: 42.33 u/L
  ALBUMIN: 4.23 G/DL
  ALKALINE PHOSPHATASE: 440 u/L
  ASPARTATE AMINOTRANSFERASE: 69 u/L
  BLOOD UREA NITROGEN: 13.67 mg/dL
  CARBON DIOXIDE: 32 mmol/L
  CHLORIDE: 101 MEQ/L
  CHOLESTEROL: 61 mg/dL
  CREATINE PHOSPHOKINASE: 227.67 u/L
  CREATININE: 0.16 mg/dL
  GLUCOSE: 149 mg/dL
  LACTATE DEHYDROGENASE: 138.67 u/L
  LIPASE: 10.67 u/L
  PHOSPHORUS: 11.67 mg/dL
  POTASSIUM: 6.52 MEQ/L
  SODIUM: 143.17 MEQ/L
  TOTAL BILIRUBIN: 0.17 mg/dL
  TOTAL PROTEIN: 5.93 G/DL
  URIC ACID: 1.7 mg/dL
[3]
  ABSOLUTE BASOPHIL: 0 CELLS/uL
  ABSOLUTE EOSINOPHIL: 49 CELLS/uL
  ABSOLUTE LYMPHOCYTE: 15618.33 CELLS/uL
  ABSOLUTE MONOCYTE: 94.33 CELLS/uL
  ABSOLUTE SEGMENTED NEUTROPHIL: 971.67 CELLS/uL
  BASOPHIL: 0%
  EOSINOPHIL: 0.33%
  ERYTHROCYTE COUNT: 5.95 x10E6/uL
  HEMATOCRIT: 37.33%
  HEMOGLOBIN: 14.67 G/DL
  LEUKOCYTE COUNT: 16.73 x10E3/uL
  LYMPHOCYTE: 93.33%
  MEAN CORPUSCULAR HEMOGLOBIN: 24.73 pg
  MEAN CORPUSCULAR HEMOGLOBIN CONCENTRATION: 39.3 G/DL
  MEAN CORPUSCULAR VOLUME: 62.9 fL
  MONOCYTE: 0.67%
  NEUTROPHIL: 5.67%
  NUCLEATED RED BLOOD CELLS: 0 /100WBC
  PLATELET COUNT: 1216.33 x10E3/uL
  ALANINE AMINOTRANSFERASE: 55.33 u/L
  ALBUMIN: 4.13 G/DL
  ALKALINE PHOSPHATASE: 501 u/L
  ASPARTATE AMINOTRANSFERASE: 86.67 u/L
  BLOOD UREA NITROGEN: 14 mg/dL
  CARBON DIOXIDE: 31 mmol/L
  CHLORIDE: 100.67 MEQ/L
  CHOLESTEROL: 67.33 mg/dL
  CREATINE PHOSPHOKINASE: 446.67 u/L
  CREATININE: 0.17 mg/dL
  GLUCOSE: 165.67 mg/dL
  LACTATE DEHYDROGENASE: 167.33 u/L
  LIPASE: 11 u/L
  PHOSPHORUS: 11.4 mg/dL
  POTASSIUM: 6.52 MEQ/L
  SODIUM: 143.23 MEQ/L
  TOTAL BILIRUBIN: 0.23 mg/dL
  TOTAL PROTEIN: 6.3 G/DL
  URIC ACID: 1.77 mg/dL

Reference: ChEMBL document CHEMBL3885881, “DrugMatrix”
